Results published in patent US9073935B2, “Substituted benzylspiroindolin-2-one analogs as positive allosteric modulators of the muscarinic acetylcholine receptor M1” (VANDERBILT UNIVERSITY, priority 2011, dated 2015).

Target: T1, mAChR M1 (UniProt P11229)
T1 sequence (P11229 1-460): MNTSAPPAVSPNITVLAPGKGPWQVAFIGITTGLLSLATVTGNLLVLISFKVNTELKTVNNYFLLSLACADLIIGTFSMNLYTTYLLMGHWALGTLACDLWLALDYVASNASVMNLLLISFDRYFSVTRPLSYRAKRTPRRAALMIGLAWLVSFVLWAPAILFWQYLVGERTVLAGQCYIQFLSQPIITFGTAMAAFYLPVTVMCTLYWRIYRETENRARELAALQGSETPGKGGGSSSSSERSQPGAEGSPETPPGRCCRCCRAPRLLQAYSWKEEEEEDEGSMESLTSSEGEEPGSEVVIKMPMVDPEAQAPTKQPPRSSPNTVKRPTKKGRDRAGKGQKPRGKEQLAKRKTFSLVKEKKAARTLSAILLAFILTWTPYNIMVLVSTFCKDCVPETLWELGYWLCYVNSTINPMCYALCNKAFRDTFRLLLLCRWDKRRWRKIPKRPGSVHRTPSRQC
Test: mAChR M1 cell-based functional assay (calcium mobilization, potentiation of EC20 acetylcholine response)
Settings: for Emax: % ACh maximum at 30 μM; for EC50: CHO-K1 cells expressing mAChR M1, increase in EC20 acetylcholine response, >10 μM estimated where no plateau in the curve
Procedure: Chinese hamster ovary (CHO-K1) cells stably expressing rat (r)M1 were purchased from the American Type Culture Collection and cultured according to their indicated protocol. […] To make stable rM2, hM2, rM3, hM4, and rM4 cell lines for use in calcium mobilization assays, these cells also were stably transfected with a chimeric G-protein (Gqi5) (provided by B. R. Conklin, University of California, San Francisco) using Lipofectamine 2000. rM1, hM1, rM3, hM3, rM5, and hM5 cells were grown in Ham's F-12 medium containing 10% heat-inactivated fetal bovine serum (FBS), 20 mM HEPES, and 50 μg/mL G418 sulfate. rM2-Gqi5, hM2-Gqi5, and hM4-Gqi5 cells were grown in the same medium also containing 500 μg/mL Hygromycin B. Stable rM4-Gqi5 cells were grown in DMEM containing 10% heat-inactivated FBS, 20 mM HEPES, 400 μg/mL G418 sulfate, and 500 μg/mL Hygromycin B.
For high throughput measurement of agonist-evoked increases in intracellular calcium, CHO-K1 cells stably expressing muscarinic receptors were plated in growth medium lacking G418 and hygromycin at 15,000 cells/20 μL/well in Greiner 384-well black-walled, tissue culture (TC)-treated, clear-bottom plates (VWR). Cells were incubated overnight at 37° C. and 5% CO2. […] Compound master plates were formatted in an 11 point CRC format (1:3 dilutions) in 100% DMSO with a starting concentration of 10 mM using the BRAVO liquid handler (Agilent). Test compound CRCs were then transferred to daughter plates ([…]) using the Echo acoustic plate reformatter (Labcyte, Sunnyvale, Calif.) and then diluted into assay buffer (40 μL) to a 2× stock using a Thermo Fisher Combi (Thermo Fisher Scientific, Waltham, Mass.).
Calcium flux was measured using the Functional Drug Screening System (FDSS) 6000 (Hamamatsu Corporation, Tokyo, Japan) as an increase in the fluorescent static ratio. Compounds were applied to cells (20 μL, 2×) using the automated system of the FDSS 6000 at 4 s into the 300 s protocol and the data were collected at 1 Hz. […] Agonist activity was analyzed as a concentration-dependent increase in calcium mobilization upon compound addition. Positive allosteric modulator activity was analyzed as a concentration-dependent increase in the EC20 acetylcholine response. Antagonist activity was analyzed as a concentration-dependent decrease in the EC80 acetylcholine response. Concentration-response curves were generated using a four-parameter logistical equation in XLfit curve fitting software (IDBS, Bridgewater, N.J.) for Excel (Microsoft, Redmond, Wash.) or Prism (GraphPad Software, Inc., San Diego, Calif.).
The calcium mobilization assay was also used to determine “efficacy”. In the context of the assays carried out for the data in Table II, “efficacy” (% ACh at 30 μM) is defined as the maximal response in the calcium flux as determined by the sigmoidal curve fit of the concentration response curve, or in the absence of an acceptable curve fit, the response recorded at 30 μM test compound, stated as a percentage of the response elicited by a concentration of Ach that induces approximately 80% of a maximal (i.e. saturating) ACh response.
Substituted benzylspiroindolin-2-one analogs were synthesized as described above. Activity (EC50 and Emax) was determined in the mAChR M1 cell-based functional assay as described above and the data are shown in Table III. The compound number corresponds to the compound numbers used in Tables I and II.

Row | Emax | EC50 | Structure (SMILES)
1 | 45% | 7.8 µM | Cn1cc(-c2ccc(CN3C(=O)C4(CCCO4)c4ccccc43)cc2)cn1 (stereo not shown) [Compound B56, 1′-(4-(1-methyl-1H-pyrazol-4-yl)benzyl)-4,5-dihydro-3H-spiro[furan-2,3′-indolin]-2′-one]
2 | 36% | > 10 µM | Cn1cc(-c2ccc(CN3C(=O)C4(CCN(Cc5ccccc5)C4)c4ccccc43)c(F)c2)cn1 (stereo not shown) [Compound B57]
3 | 53% | > 10 µM | Cn1cc(-c2ccc(CN3C(=O)C4(CCN(C5CCC(F)(F)CC5)C4)c4ccccc43)c(F)c2)cn1 (stereo not shown) [Compound B59]
4 | 39% | > 10 µM | CC1CCCCC1N1CCC2(C1)C(=O)N(Cc1ccc(-c3cnn(C)c3)cc1F)c1ccccc12 (stereo not shown) [Compound B60]
5 | 36% | > 10 µM | Cn1cc(-c2ccc(CN3C(=O)C4(CCN(CC5CCCCC5)C4)c4ccccc43)c(F)c2)cn1 (stereo not shown) [Compound B61]
6 | 54% | > 10 µM | Cn1cc(-c2ccc(CN3C(=O)C4(CCN(C(=O)C5CCCCC5)C4)c4ccccc43)c(F)c2)cn1 (stereo not shown) [Compound B62]
7 | 54% | > 10 µM | CC(=O)N1CCC2(C1)C(=O)N(Cc1ccc(-c3cnn(C)c3)cc1F)c1ccccc12 (stereo not shown) [Compound B63, 1′-acetyl-1-(2-fluoro-4-(1-methyl-1H-pyrazol-4-yl)benzyl)spiro[indoline-3,3′-pyrrolidin]-2-one]
8 | 48% | > 10 µM | CN1CCCC12C(=O)N(Cc1ccc(-c3cnn(C)c3)cc1)c1ccccc12 (stereo not shown) [Compound B64, 1′-methyl-1-(4-(1-methyl-1H-pyrazol-4-yl)benzyl)spiro[indoline-3,2′-pyrrolidin]-2-one]
9 | 35% | > 10 µM | Cn1cc(-c2ccc(CN3C(=O)C4(CCN(S(C)(=O)=O)C4)c4ccccc43)c(F)c2)cn1 (stereo not shown) [Compound B65, 1-(2-fluoro-4-(1-methyl-1H-pyrazol-4-yl)benzyl)-1′-(methylsulfonyl)spiro[indoline-3,3′-pyrrolidin]-2-one]
10 | 69% | 7.2 µM | Cn1cc2c(-c3cc(F)c(CN4C(=O)C5(CCNC5)c5ccccc54)c(F)c3)cccc2n1 (stereo not shown) [Compound B74]
11 | 66% | 5.4 µM | CN1CCC2(C1)C(=O)N(Cc1c(F)cc(-c3cccc4nn(C)cc34)cc1F)c1ccccc12 (stereo not shown) [Compound B75]
12 | <30% | > 10 µM | Cn1cc2c(-c3cc(F)c(CN4C(=O)C5(CCN(C(=O)OC(C)(C)C)C5)c5ccccc54)c(F)c3)cccc2n1 (stereo not shown) [Compound B76]
13 | <30% | > 10 µM | CN1CCCC12C(=O)N(Cc1c(F)cc(-c3cccc4nn(C)cc34)cc1F)c1ccccc12 (stereo not shown) [Compound B80]

Row | Structure (SMILES) | Emax | EC50
14 | Cn1cc(-c2ccc(CN3C(=O)C4(CCN(C5COC5)CC4)c4ccccc43)c(F)c2)cn1 [Compound B55] | 45% | 7 µM
15 | Cn1cc(-c2ccc(CN3C(=O)C4(CCN(C5CCC5)CC4)c4ccccc43)c(F)c2)cn1 [Compound B66] | 32% | > 10 µM
16 | Cn1cc(-c2ccc(CN3C(=O)C4(CCN(C5CCOCC5)CC4)c4ccccc43)c(F)c2)cn1 [Compound B69] | 41% | > 10 µM
17 | Cn1cc(-c2ccc(CN3C(=O)C4(CCN(C5CCOC5)CC4)c4ccccc43)c(F)c2)cn1 (stereo not shown) [Compound B71] | 36% | > 10 µM
18 | CN1CCC2(CC1)C(=O)N(Cc1c(F)cc(-c3ccc4nn(C)cc4c3)cc1F)c1ccccc12 [Compound B77] | 26% | > 10 µM
19 | CN1CCC2(CC1)C(=O)N(Cc1c(F)cc(-c3ccc4c(c3)CC(=O)N4)cc1F)c1ccccc12 [Compound B78] | 38% | 6.6 µM
20 | CN1CCC2(CC1)C(=O)N(Cc1c(F)cc(-c3cccc4nn(C)cc34)cc1F)c1ccccc12 [Compound B79] | <30% | > 10 µM
